Consider 9 molecules from patent US12145947B2, “Pyrimidine based modulators and uses thereof” (Quanta Therapeutics, Inc., priority 2022, dated 2024).

The target of experiment [1] is T1, KRAS G12D/RAF1 (Homo sapiens, UniProt P01116, G12D).
T1 construct: His6-MBP (N, cleaved yes); made in house; host or cells: E. coli
The experiment in a line: Protein-protein interaction (PPI) HTRF assay KRAS G12D/RAF1. The experiment is classed as binding. The protocol: Biotinylated KRAS wt and KRAS G12DNV proteins were expressed and purified in conditions similar to those previously reported (Tran, et al., 2021) (Zhang, et al., 2020). Briefly, KRAS (1-169) proteins were expressed in E. coli at 18° C. with an upstream TEV cleavage site (ENLFYQS (SEQ ID NO: 6)) followed an Avi tag sequence ([…] (SEQ ID NO: 7)). KRAS expression constructs contained both a His6 (SEQ ID NO: 8) and maltose-binding protein (MBP) tags at the N-terminus for Ni-NTA column purification prior to overnight TEV cleavage and MBP column purification. The avi-tagged NRAS expression construct contained both a His6 tag (SEQ ID NO: 8) and SUMO cleavage sige at the N-terminus for Ni-NTA column purification followed by His-ULPi digestion overnight. All avi-tagged RAS proteins were dialyzed into buffer containing ATP, biotin, and BirA followed by purification over a second Ni-NTA column and then run over a size exclusion HiLoad™ 26/600 Superdex™ column in 20 mM HEPES, pH 7.5, 300 mM NaCl, 5 mM MgCl2, and 1 mM TCEP. Fractions containing the protein of interest were pooled, concentrated, and confirmed by intact mass spectrometry. To prepare ‘GTP’ loaded KRAS and NRAS, biotinylated KRAS or NRAS was nucleotide exchanged from GDP-bound protein to GppNHp-bound (Jena Biosciences, NU-401-50) protein in the presence of alkaline phosphatase and excess GppNHp as previously described and the resulting nucleotide content was confirmed by HPLC reverse phase analytical chromatography (Donohue, et al., 2019) (Tran, et al., 2021).
His-tagged RAF1 (52-131) was similarly expressed in E. coli at 18° C. overnight with an upstream TEV cleavage site. His-tagged RAF1 expression construct contained both a His6 (SEQ ID NO: 8) and MBP tags at the N-terminus for Ni-NTA column purification followed by MBP-tagged TEV digestion overnight. RAF1 protein samples were further purified over a MBP column followed by a Ni-NTA column and a second MBP column. The fractions containing the protein of interest were pooled, concentrated, and further purified over a HiLoad™ 16/600 Superdex™ 75 pg size exclusion column into 20 mM HEPES, pH8.0, 200 mM NaCl, 5 mM TCEP.
When RAS proteins are in the active GTP-bound conformation, they bind the effector protein RAF1 at the N-terminus Ras-binding domain (RBD, residues 52-131) (Tran, et al., 2021). Homogenous time resolved fluorescence (HTRF) was used to monitor the interaction between wt or mutant KRAS and RAF1 or wt NRAS and RAFT. Compounds were assayed in the presence of KRAS G12D/V and RAF1 versus wt KRAS to assess activity against mutant and w.t. KRAS. Similarly, compounds were then assayed in the presence of w.t. NRAS and RAF1 to assess RAS isoform selectivity. In all assay formats, His-tagged RAF1 protein was incubated with the HTRF donor, anti-6His (“6His” disclosed as SEQ ID NO: 8) Tb Cryptate gold (Cisbio 61DB10RDF), and biotinylated RAS proteins were incubated with the HTRF acceptor, streptavidin-d2 (CisBio 610SADLA). The intensity of the fluorescence signal emitted is proportional to binding between the two proteins. The donor solution was prepared by mixing 16 nM His-tagged RAF1 in protein dilution buffer with 1:100 anti-6His (“6His” disclosed as SEQ ID NO: 8) Tb cryptate in PPI-Terbium detection buffer. 16 nM biotinylated RAS protein was diluted into protein dilution buffer (50 mM Tris-HCl pH 7.5, 150 mM NaCl, 0.1 mM MgCl2, 1 mM TCEP, 0.005% Tween20) and mixed with 1:2000 Streptavidin-d2 diluted in PPI-Terbium detection buffer (CisBio 61DBTORDF). 50× compound in DMSO was mixed with 16 nM KRAS-acceptor solution and incubated for 30 minutes at room temperature. After compound pre-incubation with KRAS, the RAF1 donor solution was added to the KRAS-acceptor solution and incubated for 1 hour at room temperature. The fluorescence signal emitted was monitored at 665 nm and 615 nm using an Envision multimode plate reader. […]
A general note: TR-FRET usually uses a lanthanide donor and a delayed reading to cut background.

The target in experiment [2] is T2, GST-tagged KRAS-G12D (2-169) (Homo sapiens, UniProt P01116, G12D).
T2 construct: GST-tagged KRAS-G12D (2-169, Reaction Biology, MSC-11-539); purchased Reaction Biology MSC-11-539 (KRAS G12D); MSC-11-502 (SOS1cat)
As to the kind of experiment: Nucleotide exchange assay (NEA), SOS-mediated, HTRF, KRAS G12D. In kind it is biochemical. The conditions noted are these: IC50 extracted at 30 min. From the text: This activity is tightly regulated by GTPase activating proteins (GAPs) and guanine nucleotide exchange factors (GEFs). GEFs, such as SOS1/2, activate Ras proteins by exchanging GDP for GTP, thus returning Ras to its active conformation (Simanshu, Nissley, & McCormick, 2017). […] Homogenous time resolved fluorescence (HTRF) was used to detect SOS-mediated binding of a fluorescent GTP analog, GTP-DY-647P1 (Jena Biosciences NU-820-647P1) to GST-tagged KRAS-G12D (2-169, Reaction Biology, MSC-11-539) or to GST-tagged KRAS-G12V (2-169, Reaction Biology, MSC-11-540).
GST-tagged KRAS-G12D (2-169) and anti-GST MAb Tb Cryptate Gold (CisBio 61GSTTLB) were diluted into assay buffer (20 mM HEPES, pH 7.3, 150 mM NaCl, 5 mM MgCl2, 0.05% BSA 0.0025% NP40, 1 mM DTT) to prepare a 2.5× donor solution. 5× compound was added to the protein mixture and incubated for 1 h at RT. 2.5× acceptor solution containing SOSIcat (564-1049, Reaction Biology MSC-11-502) and GTP-DY-647P1 were then added to the donor KRAS mixture such that the final concentration of the reaction contained 5 nM GST-tagged KRAS-G12D (2-169), 20 nM SOScat, and 150 nM GTP. The reaction was monitored using at RT with the Envision multimode plate reader (Ex/Em 337/665, […]) up to 90 minutes at 5 minute intervals. To monitor KRAS-G12V Sos-mediated nucleotide exchange, 80 nM SOS was added to reaction instead of 20 nM. All other components were the same as previously described. Data was blanked to reactions without SOS1 and % inhibition was calculated such that DMSO only=0% and blank=100%. Curve fitting was done using a 4 parameter fit. Reported IC50 values were extracted at 30 min and 90 min for the KRAS-G12D and KRAS-G12V assays, respectively.
Curve fitting was done using a 4 parameter fit. NEA KRAS G12D IC50 (uM) values of selected compounds are depicted in Table 2 with compounds having a value <0.01 uM as ++++; >0.01 uM to 0.1 uM as +++; >0.1 uM to 1 uM as ++; >1 uM to 20 uM as +; and >20 uM as NA.

pIC50: −log10 of the molar value.

T2 sequence (P01116 2-169 isoform P01116-2 G12D): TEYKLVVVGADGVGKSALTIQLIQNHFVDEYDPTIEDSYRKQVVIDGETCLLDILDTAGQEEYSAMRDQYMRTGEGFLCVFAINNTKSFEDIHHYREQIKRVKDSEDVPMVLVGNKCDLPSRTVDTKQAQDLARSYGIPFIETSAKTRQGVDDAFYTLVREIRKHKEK
T1 sequence (P01116 with tags, fused parts or gaps isoform P01116-2 G12D): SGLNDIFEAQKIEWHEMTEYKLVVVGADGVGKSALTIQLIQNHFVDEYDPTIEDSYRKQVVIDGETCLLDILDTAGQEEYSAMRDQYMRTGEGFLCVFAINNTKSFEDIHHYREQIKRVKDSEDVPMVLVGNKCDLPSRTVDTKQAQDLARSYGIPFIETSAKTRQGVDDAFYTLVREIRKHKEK

By pIC50 is commonly meant −log10 of the IC50, conventionally taken in molar units. A low value points to a large IC50. In the case of `Oc1ccc2c(c1)-c1ccccc1C21CN(c2cc(N3C[C@H]4CC[C@@H](C3)N4)nc(OC[C@@]34CCCN3C[C@H](F)C4)n2)C1` [Compound 1, 1-[6-[(1R,5S)-3,8-diazabicyclo[3.2.1]octan-3-yl]-2-[[(2R,8S)-2-fluoro-1,2,3,5,6,7-hexahydropyrrolizin-8-yl]methoxy]pyrimidin-4-yl]spiro[azetidine-3,9′-fluorene]-3′-ol], the pIC50 in experiment [1] (Table 2) is 4.00 to 5.00; in experiment [1] (Table 4), 4.00 to 5.00; in experiment [2] (Table 2), 6.00 to 7.00; in experiment [2] (Table 4), 6.00 to 7.00.
Regarding `C[C@@]1(O)CCCN(c2nc(OC[C@@]34CCCN3C[C@H](F)C4)nc(N3CC4(CCc5sc(N)c(C#N)c54)C3)c2F)C1` [Compound 6, 2-amino-1′-[5-fluoro-2-[[(2R,8S)-2-fluoro-1,2,3,5,6,7-hexahydropyrrolizin-8-yl]methoxy]-6-[(3R)-3-hydroxy-3-methyl-1-piperidyl]pyrimidin-4-yl]spiro[5,6-dihydrocyclopenta[b]thiophene-4,3′-azetidine]-3-carbonitrile], the pIC50 in experiment [1] (Table 4) is 4.00 to 5.00; in experiment [2] (Table 4) it was 6.00 to 7.00.
For `CO/N=C(\C)c1nn2c(c1Cl)CN(c1nc(OC[C@@]34CCCN3C[C@H](F)C4)nc(N3CC4(CCc5sc(N)c(C#N)c54)C3)c1C#N)CCC2` [Compound 20, 2-amino-1′-[6-[3-chloro-2-[(E)-N-methoxy-C-methyl-carbonimidoyl]-4,6,7,8-tetrahydropyrazolo[1,5-a][1,4]diazepin-5-yl]-5-cyano-2-[[(2R,8S)-2-fluoro-1,2,3,5,6,7-hexahydropyrrolizin-8-yl]methoxy]pyrimidin-4-yl]spiro[5,6-dihydrocyclopenta[b]thiophene-4,3′-azetidine]-3-carbonitrile], the pIC50 in experiment [1] (Table 4) was 5.00 to 6.00; in experiment [2] (Table 4) it was above 8.00.
On the same counts, the results for `N#Cc1c(N2C[C@H]3CC[C@@H](C2)N3)nc(OCC2(CN3CCC(F)CC3)CC2)nc1N1CC2(CCc3sc(N)c(C#N)c32)C1` [Compound 28, 2-amino-1′-[5-cyano-6-(3,8-diazabicyclo[3.2.1]octan-3-yl)-2-[[1-[(4-fluoro-1-piperidyl)methyl]cyclopropyl]methoxy]pyrimidin-4-yl]spiro[5,6-dihydrocyclopenta[b]thiophene-4,3′-azetidine]-3-carbonitrile] are 6.00 to 7.00 and 7.00 to 8.00.
In the case of `N#Cc1c(N2CCC=CCC2)nc(OC[C@@]23CCCN2C[C@H](F)C3)nc1N1CC2(CCc3sc(N)c(C#N)c32)C1` [Compound 31, 2-amino-1′-[5-cyano-2-[[(2R,8S)-2-fluoro-1,2,3,5,6,7-hexahydropyrrolizin-8-yl]methoxy]-6-(2,3,6,7-tetrahydroazepin-1-yl)pyrimidin-4-yl]spiro[5,6-dihydrocyclopenta[b]thiophene-4,3′-azetidine]-3-carbonitrile], the pIC50 in experiment [1] (Table 4) is 5.00 to 6.00; in experiment [2] (Table 4) it was 7.00 to 8.00.
With `CN(C)C(=O)c1nn2c(c1Cl)CN(c1nc(OC[C@@]34CCCN3C[C@H](F)C4)nc(N3CC4(C3)c3ccccc3CCC4(F)F)c1C#N)CCC2` [Compound 35, 3-chloro-5-[5-cyano-6-(2′,2′-difluorospiro[azetidine-3,1′-tetralin]-1-yl)-2-[[(2R,8S)-2-fluoro-1,2,3,5,6,7-hexahydropyrrolizin-8-yl]methoxy]pyrimidin-4-yl]-N,N-dimethyl-4,6,7,8-tetrahydropyrazolo[1,5-a][1,4]diazepine-2-carboxamide], the pIC50 in experiment [1] (Table 4) was below 4.00; in experiment [2] (Table 4), 4.70 to 6.00.
As for `N#Cc1c(N2C[C@H]3CC[C@@H](C2)N3)nc(OCc2n[nH]cc2C(F)F)nc1N1CC2(CCc3sc(N)c(C#N)c32)C1` [Compound 109, 2-amino-1′-[5-cyano-6-[(1R,5S)-3,8-diazabicyclo[3.2.1]octan-3-yl]-2-[[4-(difluoromethyl)-1H-pyrazol-3-yl]methoxy]pyrimidin-4-yl]spiro[5,6-dihydrocyclopenta[b]thiophene-4,3′-azetidine]-3-carbonitrile], the pIC50 in experiment [2] (Table 4) is 7.00 to 8.00.
On the same count and under the same terms, then `N#Cc1c(N2CCCOCC2)nc(OC[C@@]23CCCN2C[C@H](F)C3)nc1N1CC2(CCc3sc(N)c(C#N)c32)C1` [Compound 110, 2-amino-1′-[5-cyano-2-[[(2R,8S)-2-fluoro-1,2,3,5,6,7-hexahydropyrrolizin-8-yl]methoxy]-6-(1,4-oxazepan-4-yl)pyrimidin-4-yl]spiro[5,6-dihydrocyclopenta[b]thiophene-4,3′-azetidine]-3-carbonitrile], with 7.00 to 8.00; and `N#Cc1c(N2CCSc3ncccc3C2)nc(OC[C@@]23CCCN2C[C@H](F)C3)nc1N1CC2(CCc3sc(N)c(C#N)c32)C1` [Compound 111, 2-amino-1′-[5-cyano-6-(3,5-dihydro-2H-pyrido[3,2-f][1,4]thiazepin-4-yl)-2-[[(2R,8S)-2-fluoro-1,2,3,5,6,7-hexahydropyrrolizin-8-yl]methoxy]pyrimidin-4-yl]spiro[5,6-dihydrocyclopenta[b]thiophene-4,3′-azetidine]-3-carbonitrile], with 7.00 to 8.00.
